Assay results taken from patent publication US20230210831A1, “CHRONIC KIDNEY DISEASE TREATMENT OR PREVENTION METHOD” (Japan Tobacco Inc., priority 2019, published 2023).
“And” between values parts separate entries of the source, which are not always exact repeats. Equal values may be shown once.

Columns and labels:
[1] = tested on: Salmonella typhimurium TA1535; experiment: Ames test (reverse mutation test), TA1535; assay type: cell-based; details: TA1535, -S9 mix, 0.5 µg/plate (positive control)
Procedure: (§1) The solvent used herein was dimethyl sulfoxide (DMSO, 100 µL/plate).
(§2) The mixtures were preincubated at 37° C. for 20 minutes while shaking. […] Two plates per treatment were used.

[2] = tested on: Salmonella typhimurium TA1537; experiment: Ames test (reverse mutation test), TA1537; assay type: cell-based
Procedure: as §1, §2

Compound | Number of revertant colonies [1] | Number of revertant colonies TA1537 ([2]; S9 Mix -, dose 1.0 µg/plate, positive control) | Number of revertant colonies ([2]; TA1537, -S9 mix, 1.0 µg/plate (positive control))
[N-]=[N+]=[N-].[Na+] [SA] | 217 and 222 |  | 
COc1ccc2nc3cc(Cl)ccc3c(NCCCNCCCl)c2c1 [ICR-191] |  | 1448 and 1435 and 1413 and 1096 and 1397 | 1170 and 1131
